The values below come from patent US20080113926A1, “9A-Carbamoyl-Y-Aminopropyl- And 9A-Thiocabamoyl-Y-Aminopropyl-Azalides With Antimalarial Activity” (priority 2005, published 2008).

What is called IC50 is the concentration needed to halve the response being measured.

The subject of assay [1] is Plasmodium falciparum clone CDC/Indochina III (W-2). The assay is described as follows: In vitro antimalarial [3H]-hypoxanthine incorporation serial dilution assay, W2. It counts as cell-based. The following applies: Plasmodium falciparum, W2, 72 h, P. falciparum W2, parasites exposed for 72 hours. The text has this:
(§1) The in vitro screens for intrinsic antimalarial activity were based on modifications of the procedures described by Desjardins R E, Canfield C J, Haynes J D, Chulay J D. (Quantitative assessment of antimalarial activity in vitro by a semiautomated microdilution technique. Antimicrob Agents Chemother. 1979 December; 16(6):710-8), Chulay J D, Haynes J D, Diggs C L. (Plasmodium falciparum: Assessment of in vitro growth by [3H]hypoxanthine incorporation. Exp. Parasitol. 1983 55:138-146), and Milhous W K, Weatherly N F, Bowdre J H, Desjardins R E. (In vitro activities of and mechanisms of resistance to antifol antimalarial drugs. Antimicrob Agents Chemother. 1985 April; 27(4):525-30). The system was limited to the assessment of the intrinsic activity against the erythrocytic asexual life cycle (blood schizontocides). Two Plasmodium falciparum clones from CDC/Indochina III (W-2) and CDC/Sierra Leone I (D-6) (Oduola A M, Weatherly N F, Bowdre J H, Desjardins R E. Plasmodium falciparum: cloning by single-erythrocyte micromanipulation and heterogeneity in vitro. Exp Parasitol. 1988 66(1):86-95) were used for all assays. TM91C235, a multiple drug resistant isolate from Thailand, was used for the prescreening assay. W-2 is resistant to chloroquine, quinine, and pyrimethamine and susceptible to mefloquine. D-6 tends to be more resistant to mefloquine and susceptible to chloroquine, quinine, and pyrimethamine. All documents cited in this paragraph are incorporated by reference in their entirety.
(§2) All parasites were maintained in continuous long term cultures in RPMI-1640 medium supplemented with 6% washed human A positive (A+) (erythrocytes, 25 mM Hepes, […], and 10% heat inactivated A+ human plasma or ALBUMAX® (lipid-rich bovine serum albumin; Invitrogen, Carlsbad, Calif.). All cultures and assays were conducted at 37° C. under an atmosphere of 5% CO2 and 5% O2, with a balance of N2.
(§3) The prescreening assay uses TM91C235 diluted at a 0.4% parasitemia in a 1% hematocrit in folic acid free and p-aminobenzoic acid free media RPMI-1640 and ALBUMAX®. One mg of the compound is typically dissolved in 100 μl of dimethyl sulfoxide (DMSO). The compound is further diluted in culture medium (FF) with ALBUMAX® for the first initial starting concentration. The rest of the stock drug solution was kept at −70° C. The isolate was preexposed, in duplicate, at three concentrations (25,000 ng/ml, 2,500 ng/ml, and 25 ng/ml) of the test compound for 48 hr in a 96-well microtiter plate (MTP) using the BIOMEK® 2000 automated laboratory workstation. Each MTP contains chloroquine as control to assess the relative activity of the compound and to monitor the response of TM91C235.
(§4) After the preincubation, [^3H]-hypoxanthine was added to each well of the MTP. (The assay relies on the incorporation of radiolabeled hypoxanthine by the parasites, which indicates reproduction, and inhibition of isotope incorporation was attributed to activity of known or candidate antimalarial drugs). After 72 hr of total incubation time, the MTP were frozen to lyse the erythrocytes and parasites. The parasite DNA was recovered by harvesting the lysate onto glass-fiber filter plates using a Packard FilterMate™ Cell Harvester. The radioactivity was counted on a Packard TopCount™ microplate scintillation counter. The results were recorded as counts per minutes (CPM) per well at each drug concentration divided by the arithmetic mean of the CPM from the three untreated infection parasite control wells.
(§5) The serial dilution assay was conducted using the same assay conditions and stock solution of the compound used for the preliminary screen, described above. Both the D-6 and the W-2 clones were used. The compounds were diluted two-fold over 11 different concentration ranges with a starting concentration that was based on the preliminary screen. […]

The test system of assay [2] is Plasmodium falciparum TM91C235. The assay is described as follows: In vitro antimalarial [3H]-hypoxanthine incorporation serial dilution assay, TM91C235. It counts as cell-based. The following applies: Plasmodium falciparum; P. falciparum TM91C235, parasites exposed for 72 hours.
In a further assay the test system is Plasmodium vivax. The following applies: non-immune patients, as compared to controls; cited from earlier work.
Another assay relates to Plasmodium falciparum. The following applies: non-immune patients, as compared to controls; cited from earlier work.
For a further assay, the system named is Plasmodium cynomolgi. The following applies: rhesus monkey; cited from earlier work.
The test system of assay [3] is Plasmodium falciparum clone CDC/Sierra Leone I (D-6). The assay is described as follows: In vitro antimalarial [3H]-hypoxanthine incorporation serial dilution assay, D6. It counts as cell-based. The following applies: Plasmodium falciparum; P. falciparum D6, parasites exposed for 72 hours.
From the text: as §1, §2, §3, §4, §5

Assay [4] has as its system Plasmodium yoelii nigeriensis. The following applies: cited from earlier work.
Another assay deals with Plasmodium berghei. The following applies: cited from earlier work.

≈ marks a conversion by molar mass, not a printed value.

Consider `CC[C@H]1OC(=O)[C@H](C)[C@@H](O[C@H]2C[C@@](C)(OC)[C@@H](O)[C@H](C)O2)[C@H](C)[C@@H](O[C@@H]2O[C@H](C)C[C@H](N(C)C)[C@H]2O)[C@](C)(O)C[C@@H](C)CN(C)[C@H](C)[C@@H](O)[C@]1(C)O` [azithromycin, reference compound], for which the concentration for half-maximal inhibition (IC50) in assay [1] turned out to be 1.76 mg/L (≈ 2.35 µM); in assay [2] it was 1.62 mg/L (≈ 2.16 µM); in assay [3] it was 0.797 mg/L (≈ 1.06 µM). In addition, in the assay on Plasmodium vivax, the “prophylactic efficacy for Plasmodium vivax” value is given as 98.9%. The “prophylactic efficacy for Plasmodium falciparum” value with Plasmodium falciparum is given as 71.6%. In addition, the “efficacy in monkey model” value in the assay with Plasmodium cynomolgi is reported as “active”.

As for midecamycinin, the “activity in mouse model, Plasmodium yoelii nigeriensis” value in assay [4] is recorded as “active”. The “efficacy in monkey model” value with Plasmodium cynomolgi is listed as “no efficacy”. Also, the “activity in mouse model, Plasmodium berghei” value in the assay on Plasmodium berghei was “active”.
